We go through nine molecules from patent US6133275A, “3-phenylpyrrolidine alpha-1 adrenergic compounds” (Abbott Laboratories, priority 1998, dated 2000).

Structures can show the parent of a compound that is named as a salt.

The term Ki denotes a measure of affinity in units of concentration, obtained from inhibition or displacement. Read a high Ki as weaker binding.

In assay [1] the test system is BPH patients. The following applies: cited from earlier work; for Clinical efficacy in BPH: BPH patients; for improvements in urinary flow rates and subjective symptom scores: longer term studies.
Assay [2] has as its target T1, α1a (Rat) (Rattus norvegicus, UniProt P43140).
T1 sequence (P43140 1-466): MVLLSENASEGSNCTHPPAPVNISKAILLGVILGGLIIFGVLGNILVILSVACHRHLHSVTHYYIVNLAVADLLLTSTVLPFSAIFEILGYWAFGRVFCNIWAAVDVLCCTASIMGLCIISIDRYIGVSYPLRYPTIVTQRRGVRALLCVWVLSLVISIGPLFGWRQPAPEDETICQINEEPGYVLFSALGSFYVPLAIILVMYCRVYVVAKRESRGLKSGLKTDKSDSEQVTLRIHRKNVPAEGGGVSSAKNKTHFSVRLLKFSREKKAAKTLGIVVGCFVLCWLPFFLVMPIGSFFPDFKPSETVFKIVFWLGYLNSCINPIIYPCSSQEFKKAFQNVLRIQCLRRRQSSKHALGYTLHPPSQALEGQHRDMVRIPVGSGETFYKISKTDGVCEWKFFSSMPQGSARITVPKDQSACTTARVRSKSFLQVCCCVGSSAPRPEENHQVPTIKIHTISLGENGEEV
The experiment in a line: Radioligand binding, displacement of [3H]-prazosin from cloned α1a (rat) expressed in LTK cells. The following applies: [3H]-prazosin 0.2 nM; cloned rat α1a in LTK cell membranes; 25° C., 50 minutes. On the technique in general: Loss of bound radioactivity is the signal in a displacement assay; it reports binding, not function.

The target of assay [3] is T2, α1a (Bovine) (Bos taurus, UniProt P18130).
T2 sequence (P18130 1-466): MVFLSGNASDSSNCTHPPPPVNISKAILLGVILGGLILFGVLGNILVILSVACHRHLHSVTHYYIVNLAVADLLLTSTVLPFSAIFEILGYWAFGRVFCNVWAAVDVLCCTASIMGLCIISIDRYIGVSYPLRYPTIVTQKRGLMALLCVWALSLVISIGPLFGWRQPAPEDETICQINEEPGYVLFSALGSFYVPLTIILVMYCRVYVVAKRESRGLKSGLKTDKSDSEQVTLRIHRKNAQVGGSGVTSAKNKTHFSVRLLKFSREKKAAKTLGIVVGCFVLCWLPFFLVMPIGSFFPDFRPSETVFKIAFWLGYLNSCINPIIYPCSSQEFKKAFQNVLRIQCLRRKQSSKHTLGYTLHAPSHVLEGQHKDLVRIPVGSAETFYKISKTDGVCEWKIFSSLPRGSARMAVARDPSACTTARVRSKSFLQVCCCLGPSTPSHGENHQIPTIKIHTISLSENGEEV
The experiment in a line: Radioligand binding, displacement of [3H]-prazosin from cloned α1a (bovine) expressed in LTK cells. The following applies: [3H]-prazosin 0.2 nM; cloned bovine α1a in LTK cell membranes; 25° C., 50 minutes.

Assay [4] addresses T3, α1b (Hamster) (Mesocricetus auratus, UniProt P18841).
T3 sequence (P18841 1-515): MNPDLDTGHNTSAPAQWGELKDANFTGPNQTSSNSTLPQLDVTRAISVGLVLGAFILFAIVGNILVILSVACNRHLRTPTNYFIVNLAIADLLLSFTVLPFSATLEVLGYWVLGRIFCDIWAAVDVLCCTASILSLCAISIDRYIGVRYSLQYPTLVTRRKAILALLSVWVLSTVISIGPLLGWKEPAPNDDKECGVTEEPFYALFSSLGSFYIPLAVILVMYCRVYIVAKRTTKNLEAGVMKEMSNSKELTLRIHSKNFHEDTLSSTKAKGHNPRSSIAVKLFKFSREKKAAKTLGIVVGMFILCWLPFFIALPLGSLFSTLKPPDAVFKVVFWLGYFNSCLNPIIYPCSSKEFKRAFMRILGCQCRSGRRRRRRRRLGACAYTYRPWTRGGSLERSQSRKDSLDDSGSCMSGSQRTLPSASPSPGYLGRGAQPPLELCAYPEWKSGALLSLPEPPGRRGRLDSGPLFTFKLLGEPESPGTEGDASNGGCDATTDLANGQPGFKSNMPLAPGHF
The experiment in a line: Radioligand binding, displacement of [3H]-prazosin from cloned α1b (hamster) expressed in LTK cells. The following applies: [3H]-prazosin 0.2 nM; cloned hamster α1b in LTK cell membranes; 25° C., 50 minutes.

For assay [5], the target named is T4, α1d (rat) (Rattus norvegicus, UniProt P23944).
T4 sequence (P23944 1-561): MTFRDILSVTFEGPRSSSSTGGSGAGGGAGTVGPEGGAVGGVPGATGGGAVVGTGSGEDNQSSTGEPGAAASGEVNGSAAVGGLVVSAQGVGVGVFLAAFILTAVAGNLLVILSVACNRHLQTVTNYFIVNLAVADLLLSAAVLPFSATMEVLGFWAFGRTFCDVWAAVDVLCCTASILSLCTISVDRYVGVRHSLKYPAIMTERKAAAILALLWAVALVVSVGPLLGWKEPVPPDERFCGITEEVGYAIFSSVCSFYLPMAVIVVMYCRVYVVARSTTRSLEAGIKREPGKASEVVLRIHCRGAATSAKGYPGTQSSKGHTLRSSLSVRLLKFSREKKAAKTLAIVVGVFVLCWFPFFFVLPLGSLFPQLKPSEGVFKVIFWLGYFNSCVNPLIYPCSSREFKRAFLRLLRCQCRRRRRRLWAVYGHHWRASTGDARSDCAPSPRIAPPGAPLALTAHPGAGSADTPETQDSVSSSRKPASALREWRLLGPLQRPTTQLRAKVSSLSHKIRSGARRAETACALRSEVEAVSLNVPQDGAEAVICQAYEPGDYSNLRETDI
The assay is described as follows: Radioligand binding, displacement of [3H]-prazosin from cloned α1d (rat) expressed in LTK cells. The following applies: [3H]-prazosin 0.2 nM; cloned rat α1d in LTK cell membranes; 25° C., 50 minutes.

In the case of `COc1cc2nc(N3CCN(C(=O)C4COc5ccccc5O4)CC3)nc(N)c2cc1OC` (centres unmarked) [doxazosin], in assay [1], the “Clinical efficacy in BPH” value is “Clinical efficacy of α1 antagonists in BPH has been demonstrated”; the “improvements in urinary flow rates and subjective symptom scores” value (“improvements” for short) is “significant improvements in urinary flow rates and subjective symptom scores”.
Take `COc1cc2nc(N3CCN(C(=O)c4ccco4)CC3)nc(N)c2cc1OC` [prazosin]: in assay [1], the “improvements” value was “significant improvements in urinary flow rates and subjective symptom scores”.
With `O=C(NC1CCN(CCc2c[nH]c3ccccc23)CC1)c1ccccc1` [indoramin], the “improvements” value in assay [1] was “significant improvements in urinary flow rates and subjective symptom scores”.
`COc1cc2nc(N3CCN(C(=O)C4CCCO4)CC3)nc(N)c2cc1OC` (centres unmarked) [terazosin]: in assay [1], the “Clinical efficacy in BPH” value is on record as “Clinical efficacy of α1 antagonists in BPH has been demonstrated”; the “improvements” value is “significant improvements in urinary flow rates and subjective symptom scores”.
Turning to `COc1ccccc1[C@H]1CCN(CCCCn2c(=O)[nH]c3c(sc4ncc(-c5ccccc5)nc43)c2=O)C1` [Example 16, (R)-8-phenyl-3-[4-[3-(2-methoxyphenyl)-1-pyrrolidinyl]butyl]pyrazino[2',3':4,5]thieno[3,2-d]pyrimidine-2,4(1H,3H)-dione, Dihydrochloride], the Ki is 1.61 nM in assay [2], 0.09 nM in assay [3], 11.8 nM in assay [4] and 0.64 nM in assay [5].
Take `COc1ccccc1[C@H]1CCN(CCCCn2c(=O)[nH]c3c(sc4ncc(Cl)nc43)c2=O)C1` [Example 14, (R)-8-Chloro-3-[4-[3-(2-methoxyphenyl)-1-pyrrolidinyl]butyl]pyrazino[2',3':4,5]thieno[3,2-d]pyrimidine-2,4(1H,3H)-dione, Dihydrochloride]: the Ki came out at 0.22 nM in assay [2], 0.09 nM in assay [3], 5.9 nM in assay [4] and 0.47 nM in assay [5].
Take `COc1ccccc1[C@H]1CCN(CCCn2c(=O)[nH]c3c(sc4cccnc43)c2=O)C1` [Example 5, (R)-3-[3-[3-(2-Methoxyphenyl)-1-pyrrolidinyl]propyl]pyrido[2',3':4,5]thieno[3,2-d]pyrimidine-2,4(1H,3H)-dione Dihydrochloride]: the Ki in assay [2] was determined as 2.05 nM; in assay [3], 1.25 nM; in assay [4], 9.68 nM; in assay [5], 2.25 nM.
For `COc1cccc([C@H]2CCN(CCn3c(=O)[nH]c4c(sc5cccnc54)c3=O)C2)c1` [Example 20, (R)-3-[2-[3-(3-methoxyphenyl)-1-pyrrolidinyl]ethyl]pyrido[2',3':4,5]thieno[3,2-d]pyrimidine-2,4(1H,3H)-dione, Dihydrochloride], the Ki was 46.3 nM in assay [2], 12 nM in assay [3], 194 nM in assay [4] and 69.4 nM in assay [5].
On to `COc1ccccc1[C@H]1CCN(CCCCN2C(=O)CCc3ccccc32)C1` [Example 19, (R)-3,4-dihydro-1-[4-[3-(2-methoxyphenyl)-1-pyrrolidinyl]butyl]-2(1H)-quinolinone Monohydrochloride], for which the Ki amounted to 0.57 nM in assay [2], 0.15 nM in assay [3], 0.93 nM in assay [4] and 0.23 nM in assay [5].
